Our source for the IC50 values is patent US10703764B2, “Benzopiperazine compositions as BET bromodomain inhibitors” (FORMA Therapeutics, Inc., priority 2013, dated 2020).

For test [1], the target named is T1, BRD4 BD2 (Homo sapiens, UniProt O60885).
T1 construct: made in house
Description: AlphaScreen binding assay, BRD4 Bromodomain 2. The method in brief:
(§1)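 An AlphaScreen competition format was used with His-BRD4 BD1 or BD2 and biotin-H4 K5/8/12/16-acetyl peptide, each at matched final levels of 50 nM (BD1) or 100 nM (BD2). Incubation in HEPES/NaCl buffer with 0.1% BSA and 0.01% Triton X-100 ran ≥1 h before IC50 determination.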
(In general: Bead proximity is the source of the signal in Alpha formats.)

The target of test [2] is T2, BRD4 BD1 (Homo sapiens, UniProt O60885).
T2 construct: made in house
Description: AlphaScreen binding assay, BRD4 Bromodomain 1. The method in brief: as §1

A word on the IC50: it is the concentration that gives 50% inhibition. Low values mean inhibition by little substance, high ones a need for much substance.

Regarding `CC(=O)N1c2ccccc2N(C(=O)Cc2cccs2)C[C@@H]1C` [Example I-731], the figures for the concentration for half-maximal inhibition (IC50) in test [1] and in test [2] were more than 500 nM and more than 10000 nM, respectively.

For the compound `CC(=O)N1c2ccccc2N(S(=O)(=O)c2ccccc2F)C[C@@H]1C` [Example I-931], the IC50 is more than 500 nM in test [1] and more than 10000 nM in test [2].

In the case of `CC(=O)N1c2ccccc2N(C(=O)c2ccc3c(c2)CCO3)C[C@@H]1C` [Example I-717], the IC50 in test [1] is more than 500 nM; in test [2], more than 10000 nM.

For the compound `CC(=O)N1c2ccccc2N(Cc2cc(C(F)(F)F)cc(C(F)(F)F)c2)C[C@@H]1C` [Example I-900], the IC50 is more than 500 nM in test [1] and more than 10000 nM in test [2].

As for `CC(=O)N1c2ccccc2N(C(=O)c2ccncc2)C[C@@H]1C` [Example I-704], the half-inhibitory concentration (IC50) was more than 500 nM in test [1] and more than 10000 nM in test [2].

With `COC(=O)N1c2ccc(-c3cnn(CCC#N)c3)cc2N(C(=O)Oc2ccccn2)C[C@@H]1C` [Example I-1327], the IC50 is 50 to 500 nM in test [1] and 1000 to 10000 nM in test [2].

`CC(=O)N1c2ccccc2N(C(=O)c2cc3ccncc3o2)C[C@@H]1C` [Example I-777]: the values for the IC50 in test [1] and in test [2] were more than 500 nM and more than 10000 nM, respectively.

With `CC(=O)N1c2ccc(-c3cncn3C)cc2N(C(=O)c2ccco2)C[C@@H]1C` [Example I-389], the IC50 in test [1] was 50 to 500 nM; in test [2], more than 10000 nM.

In the case of `CC(=O)N1CCC[C@H](CN2C[C@H](C)N(C(C)=O)c3ccccc32)C1` [Example I-928], the values for the concentration for half-maximal inhibition (IC50) in test [1] and in test [2] were more than 500 nM and more than 10000 nM, respectively.

`CC(=O)N1c2ccc(-c3ccc(OC(F)(F)F)cc3)cc2N(C(=O)c2ccco2)C[C@@H]1C` [Example I-808]: the IC50 lay in the range of 50 to 500 nM in test [1] and 1000 to 10000 nM in test [2].

With `CC(=O)N1c2ccc(-c3ccc(S(C)(=O)=O)cc3)cc2N(C(=O)c2cc(C)[nH]n2)CC1C` (stereo not shown) [Example I-981], the concentration for half-maximal inhibition (IC50) in test [1] was 50 to 500 nM; in test [2], 1000 to 10000 nM.

With `CC(=O)N1c2ccc(-c3cnn(C4COC4)c3)cc2N(C(=O)C(C)(C)Cl)C[C@@H]1C` [Example I-115, (S)-1-(4-acetyl-3-methyl-7-(1-(oxetan-3-yl)-1H-pyrazol-4-yl)-3,4-dihydroquinoxalin-1(2H)-yl)-2-chloro-2-methylpropan-1-one], the figures for the IC50 in test [1] and in test [2] were more than 500 nM and more than 10000 nM, respectively.

`CO[C@H](C(=O)N1C[C@H](C)N(C(C)=O)c2ccccc21)c1ccccc1` [Example I-741]: the values for the IC50 in test [1] and in test [2] were more than 500 nM and more than 10000 nM, respectively.

Take `CC(=O)N1c2ccccc2N(C(=O)c2cccc(Cl)c2)C[C@@H]1C` [Example I-718]: the IC50 is more than 500 nM in test [1] and more than 10000 nM in test [2].

As to `COc1ncc(-c2ccc3c(c2)N(C(=O)c2ccco2)C[C@H](C)N3C(C)=O)cn1` [Example I-834], the IC50 in test [1] fell in the range of 50 to 500 nM; in test [2], 1000 to 10000 nM.

Regarding `CC(=O)N1c2ccc(-c3ccncc3)cc2N(C(=O)c2ccco2)C[C@@H]1C` [Example I-820], the IC50 in test [1] was less than 50 nM; in test [2], 1000 to 10000 nM.

Turning to `COC(=O)N1c2ccc(-c3ccc4c(c3)CCN4S(C)(=O)=O)cc2N(C(=O)Oc2cccnc2)C[C@@H]1C` [Example I-1291], the IC50 is more than 500 nM in test [1] and 1000 to 10000 nM in test [2].

In the case of `CC(=O)N1c2ccc(-c3ccc(-n4cccn4)cc3)cc2N(C(=O)c2ccco2)C[C@@H]1C` [Example I-803], the results for the IC50 in test [1] and in test [2] were 50 to 500 nM and 1000 to 10000 nM, respectively.

On to `COc1cccc(NC(=O)N2C[C@H](C)N(C(C)=O)c3ccc(-c4ccc(S(C)(=O)=O)cc4)cc32)c1` [Example I-967], for which the results for the IC50 in test [1] and in test [2] were 50 to 500 nM and more than 10000 nM, respectively.

With `CC(=O)N1c2ccccc2N(S(=O)(=O)Cc2ccc(C#N)cc2)C[C@@H]1C` [Example I-963], the 50% inhibitory concentration (IC50) is more than 500 nM in test [1] and more than 10000 nM in test [2].

In the case of `CC(=O)N1c2ccccc2N(C(=O)c2cnc(C)cn2)C[C@@H]1C` [Example I-721], the IC50 in test [1] was more than 500 nM; in test [2] it was more than 10000 nM.

On to `CC(=O)N1c2ccc(-c3cc(F)cc(F)c3)cc2N(C(=O)c2ccco2)C[C@@H]1C` [Example I-869], for which the half-maximal inhibitory concentration (IC50) in test [1] was in the range of 50 to 500 nM; in test [2], 1000 to 10000 nM.

With `CC(=O)N1c2ccccc2N(S(=O)(=O)c2cccc(C)c2)C[C@@H]1C` [Example I-948], the IC50 was more than 500 nM in test [1] and more than 10000 nM in test [2].

Regarding `COc1ncc(F)cc1OC(=O)N1C[C@H](C)N(C(C)=O)c2ccc(-c3cnn(C4CC4)c3)cc21` [Example I-1208], the IC50 is 50 to 500 nM in test [1] and 1000 to 10000 nM in test [2].

With `CC(=O)N1c2ccccc2N(Cc2ccc(C(F)(F)F)nc2)C[C@@H]1C` [Example I-911], the IC50 in test [1] is more than 500 nM; in test [2], more than 10000 nM.

Regarding `CC(=O)N1c2ccccc2N(C(=O)c2cc(C)oc2C)C[C@@H]1C` [Example I-749], the IC50 in test [1] is more than 500 nM; in test [2] it was more than 10000 nM.

Consider `CC(=O)N1c2ccccc2N(S(=O)(=O)c2cccc(Cl)c2)C[C@@H]1C` [Example I-946], for which the results for the IC50 in test [1] and in test [2] were more than 500 nM and more than 10000 nM, respectively.

Regarding `COC(=O)N1c2ccc(-c3ccc(N(C)S(C)(=O)=O)cc3)cc2N(C(=O)Oc2cccnc2)C[C@@H]1C` [Example I-1293], the values for the half-inhibitory concentration (IC50) in test [1] and in test [2] were more than 500 nM and 1000 to 10000 nM, respectively.

Take `CC(=O)N1c2ccc(-c3cnn(Cc4ccncc4)c3)cc2N(C(=O)C2CC2)C[C@@H]1C` [Example I-118, (S)-1-(4-(cyclopropanecarbonyl)-2-methyl-6-(1-(pyridin-4-ylmethyl)-1H-pyrazol-4-yl)-3,4-dihydroquinoxalin-1(2H)-yl)ethanone]: the IC50 in test [1] fell in the range of 50 to 500 nM; in test [2], 1000 to 10000 nM.

`CC(=O)N1c2ccccc2N(C(=O)c2cnc(-c3cccnc3)s2)C[C@@H]1C` [Example I-726]: the IC50 in test [1] is more than 500 nM; in test [2], more than 10000 nM.

For `CC(C)OC(=O)N1c2ccc(-c3ccc(S(C)(=O)=O)cc3)cc2N(C(=O)c2ccco2)C[C@@H]1C` [Example I-372], the IC50 is more than 500 nM in test [1] and more than 10000 nM in test [2].

For the compound `CC(=O)N1c2ccc(-c3ccc(S(C)(=O)=O)cc3)cc2N(C(=O)Oc2ccc(F)cc2F)C[C@@H]1C` [Example I-1010], the IC50 in test [1] lay within 50 to 500 nM; in test [2], 1000 to 10000 nM.

As to `COC(=O)N1c2ccc(-c3cnn(C(C)(C)CO)c3)cc2N(C(=O)Oc2cccnc2)C[C@@H]1C` [Example I-1285], the half-maximal inhibitory concentration (IC50) in test [1] was in the range of 50 to 500 nM; in test [2], 1000 to 10000 nM.

With `CC(=O)N1c2ccccc2N(C(=O)Cc2cccc(C(F)(F)F)c2)C[C@@H]1C` [Example I-710], the IC50 in test [1] is more than 500 nM; in test [2] it was more than 10000 nM.

For `C[C@H]1CN(C(=O)c2ccco2)c2cc(-c3ccc(S(C)(=O)=O)cc3)ccc2N1C(=O)c1ccno1` [Example I-375], the values for the IC50 in test [1] and in test [2] were more than 500 nM and more than 10000 nM, respectively.

For `COc1ccc2[nH]c(C(=O)N3CC(C)N(C(C)=O)c4ccc(-c5ccc(S(C)(=O)=O)cc5)cc43)cc2c1` (stereo not shown) [Example I-882], the figures for the IC50 in test [1] and in test [2] were 50 to 500 nM and 1000 to 10000 nM, respectively.

Turning to `CC(=O)N1c2ccc(-c3cc4ccccc4n3C)cc2N(C(=O)c2ccco2)C[C@@H]1C` [Example I-839], the IC50 is more than 500 nM in test [1] and more than 10000 nM in test [2].

Take `CC(=O)N1c2ccc(-c3cnn(C4CC4)c3)cc2N(C(=O)Oc2ccc(C#N)cc2Cl)C[C@@H]1C` [Example I-528]: the results for the IC50 in test [1] and in test [2] were 50 to 500 nM and 1000 to 10000 nM, respectively.

Regarding `CC(=O)N1C[C@H](C)N(C(C)=O)c2ccc(-c3ccc(S(C)(=O)=O)cc3)cc21` [Example I-241], the IC50 lay within 50 to 500 nM in test [1] and 1000 to 10000 nM in test [2].

For `COC(=O)N1c2ccc(-c3cnn(C(C)(C)CO)c3)cc2N(C(=O)Oc2ccccn2)C[C@@H]1C` [Example I-1313], the IC50 in test [1] is 50 to 500 nM; in test [2], 1000 to 10000 nM.

Turning to `COC(=O)N1c2ccc(-c3ccc(S(C)(=O)=O)cc3)cc2N(C(=O)Oc2ccccn2)C[C@@H]1C` [Example I-1315], the values for the IC50 in test [1] and in test [2] were 50 to 500 nM and 1000 to 10000 nM, respectively.

As for `CC(=O)N1c2ccc(-c3ccc(-c4nnco4)cc3)cc2N(C(=O)c2ccco2)C[C@@H]1C` [Example I-416], the IC50 in test [1] was less than 50 nM; in test [2] it was 1000 to 10000 nM.

As for `CC(=O)N1c2ccccc2N(C(=O)CC2CCN(S(C)(=O)=O)CC2)C[C@@H]1C` [Example I-762], the IC50 is more than 500 nM in test [1] and more than 10000 nM in test [2].

On to `C[C@H]1CN(C(=O)c2ccco2)c2cc(-c3ccc(S(C)(=O)=O)cc3)ccc2N1C(=O)CO` [Example I-367], for which the IC50 is more than 500 nM in test [1] and more than 10000 nM in test [2].

Consider `CC(=O)N1c2ccc(-c3ccc(S(C)(=O)=O)cc3)cc2N(C(=O)c2ncc[nH]2)CC1C` (stereo not shown) [Example I-982], for which the half-inhibitory concentration (IC50) was more than 500 nM in test [1] and 1000 to 10000 nM in test [2].

`CC(=O)N1c2ccc(-c3ccc(S(C)(=O)=O)cc3)cc2N(C(=O)C(C)(C)C)C[C@@H]1C` [Example I-243]: the IC50 is more than 500 nM in test [1] and more than 10000 nM in test [2].

On to `CC(=O)N1c2ccccc2N(Cc2cc(C)nn2C)C[C@@H]1C` [Example I-905], for which the IC50 in test [1] was more than 500 nM; in test [2], more than 10000 nM.

As to `CC(=O)N1c2ccc(-c3ccc(S(C)(=O)=O)cc3)cc2N(C(=O)OC2CCC(F)(F)CC2)C[C@@H]1C` [Example I-32, (S)-4,4-difluorocyclohexyl 4-acetyl-3-methyl-7-(4-(methylsulfonyl)phenyl)-3,4-dihydroquinoxaline-1(2H)-carboxylate], the values for the IC50 in test [1] and in test [2] were less than 50 nM and 100 to 1000 nM, respectively.

As to `CC(=O)N1c2ccccc2N(C(=O)COCC(C)C)C[C@@H]1C` [Example I-772], the values for the IC50 in test [1] and in test [2] were more than 500 nM and more than 10000 nM, respectively.

As to `CC(=O)N1c2ccc(-c3ccc(S(C)(=O)=O)cc3)cc2N(C(=O)c2cn3ccncc3n2)C[C@@H]1C` [Example I-779], the IC50 in test [1] was more than 500 nM; in test [2], more than 10000 nM.
